Source: patent US20150133431A1, “GGA DERIVATIVES” (COYOTE PHARMACEUTICALS, INC., priority 2013, published 2015)

Experiments:
[1] = in certain situations; Katsuno et al., PNAS 2003; cited from earlier work
[2] = tested on: cells; assay: cytoprotective effects on cells, GGA isomers; type: cell-based
Method: The isolated cis- and trans-compounds described herein are also useful in assays which access a compound having putative cytoprotective effects. In particular, in such assays, the cis-isomer of GGA will behave as baseline or negative control and the trans-isomer as a positive control. The putative compound is tested in the assay described variously herein and its activity correlated against the cis- and trans-isomers. […] Accordingly, the cis-isomer finds utility as a negative control in the assay.

CC(=O)CC/C=C(\C)CC/C=C(\C)CC/C=C(\C)CCC=C(C)C [GGA, Geranylgeranyl acetone]
concentration of GGA required to exert a cytoprotective effect [1]: more than 600 mg per kg per day

CC(=O)CC/C=C(/C)CC/C=C(\C)CC/C=C(\C)CCC=C(C)C [cis-isomer, 5Z,9E,13E-Geranylgeranyl acetone]
effect of increasing amounts of cis-isomer on activity of trans-isomer ([2]; increasing amounts of the cis-isomer): antagonize the activity of the trans-isomer

CC(=O)CC/C=C(\C)CC/C=C(\C)CC/C=C(\C)CCC=C(C)C [trans-isomer of GGA, 5E,9E,13E-Geranylgeranyl acetone]
cytoprotective efficacy compared with 1:2 to 1:3 cis:trans mixture of GGA and cis-isomer alone ([2]; comparison of isomers): more efficacious at lower concentrations
